Test results: PubChem BioAssay AID1918931 (Molecular Pharmacology Branch, DTP, NCI, 2023)
Where “and” joins values, the source holds several entries; their conditions need not be identical. Identical values can stand only once.

Test system: 138582-337-R-J1-PDC complex spheroid viability
Assay: Anticancer human tumor 138582-337-R-J1-PDC patient-derived Merkel cell tumor cell line growth inhibition
Conditions: for viability, T/C: stronger effect = lower value; for IC50: curve of compound
From the text: Multicellular complex tumor spheroid response to LSD1 Inhibitor Iadademstat in combination with a variety of drugs and investigational agents in selected tumor cell lines
The current study was undertaken to assess response to LSD1 inhibitors in combination with standard-of-care drugs and investigational agents in solid tumor complex spheroid models as well as in the K-562 leukemia. Complex spheroids include a stromal component modeled by human endothelial cells (HUVEC) and fibroblasts modeled by human mesenchymal stem cells (MSCs). The concentration ranges selected for each drug and investigational agent were based upon clinically achievable concentrations if the clinical Cmax of the agent was known.
Compounds. The drugs and investigational agents used in this study are listed on Table 1. All of the agents used, including staurosporine (NSC755774) and gemcitabine (NSC613327), were obtained from the Developmental Therapeutics Program, NCI. FDA-approved anticancer drugs are available from the NCI at http://dtp.nci.nih.gov/branches/dscb/oncology_drugset_explanation.html. Drugs and investigational agents were >95% pure by proton nuclear magnetic resonance (NMR) and liquid chromatography/mass spectrometry (LC/MS). Stock solutions were prepared at 400x in DMSO, stored at -70 degrees C, and diluted in fresh medium prior to their use. The final concentration of DMSO in cell culture wells never exceeded 0.25% (v/v). The FDA-approved anticancer drug set is available from the Developmental Therapeutics Program at https://dtp.cancer.gov/organization/dscb/obtaining/available_plates.htm. All drugs and investigational agents were tested over a range starting from a high concentration at or near the clinical Cmax and decreasing in half-log increments. If the clinical Cmax for an agent had not been determined, the highest concentration tested was 10 microM.
Cell Lines. The patient-derived cancer cell (PDC) lines: 292921-168-R-J2-PDC, K24384-001-R-PDC, and 521955-158-R2-J5-PDC pancreatic carcinomas, 556581-035-R-J1 ovarian carcinoma, 324938-238-R-J1-PDC, 855422-203-R-J1-PDC and 883617-216-R-J1-PDC urothelial bladder carcinomas, 743489-274-T-PDC renal cell carcinoma, 138582-R-J1 Merkel cell tumor, K60290-347-R-J1 and K57222-313-R-J1-PDC glioblastomas, 653999-131-R-J2-PDC, LG0703-F948-PDC, and 349418-098-R-PDC non-small cell lung carcinomas, 885512-296-R-J2-PDC, 171881-019-R-J1-PDC breast carcinomas and 186277-243-T-J2-PDC and 233499-124-R-J2-PDC colon carcinomas were obtained from the NCI Patient-Derived Models Repository (PDMR, https://pdmr.cancer.gov). The established cell lines NCI/ADR-RES (RRID:CVCL_14520 and OVCAR-5 (RRID:CVCL_1628) ovarian carcinomas, 786-O (RRID:CVCL_1051) and A498 (RRID:CVCL_A498) renal cell carcinoma, NCI-H211 (ATCC, cat. CRL-5824; RRID:CVCL_1529), NCI-H196 (ATCC, cat. CRL-5823, RRID:CVCL_1509), SW 1271 (ATCC, cat. CRL-2177, RRID:CVCL_1716) and NCI-H1876 (ATCC, cat. CRL-5902, RRID:CVCL_1503) small cell lung carcinomas, MDA-MB-231 (RRID:CVCL_0062) and MDA-MB-468 (RRID:CVCL_0419)breast carcinomas (10-12). Pooled donor human umbilical vein endothelial cells (HUVEC, Lonza, cat. CC-2519) and human mesenchymal stem cells (hMSC, Lonza, cat. PT-2501) were purchased from Lonza (Walkersville, MD).
Cell Culture. All cells were maintained in an incubator at 37 degrees C and 5% CO2 with 95% humidity. The PDC lines were cultured according to standard operating procedures established by the NCI PDMR (https://pdmr.cancer.gov). Briefly all PDCs were thawed and cultured in Matrigel-coated flasks prepared with a working solution of 1X Ham's F-12 nutrient mix, without supplementation (Invitrogen, Waltham, MA, cat. 11765054), 100 U/mL penicillin-streptomycin (Invitrogen, cat. 15140122), and 2.5% Matrigel (Corning Inc., Corning, NY, cat. 354248) for the first three passages. […]
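Also: spheroids exposed to agents for 7 days.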
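For viability, T/C in this document: 100% = DMSO vehicle control viability.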

Row | Structure (SMILES) | IC50 | viability, T/C (compound 0.000316 µM) | viability, T/C (compound 0.00316 µM) | viability, T/C (compound 0.01 µM) | viability, T/C (compound 0.0316 µM) | viability, T/C (compound 0.1 µM) | viability, T/C (compound 0.001 µM) | viability, T/C (compound 0.316 µM) | viability, T/C (compound 1 µM) | viability, T/C (compound 3.16 µM) | viability, T/C (compound 10 µM) | viability, T/C (compound 0.00949 µM) | viability, T/C (compound 0.03 µM) | viability, T/C (compound 0.0949 µM) | viability, T/C (compound 0.3 µM) | viability, T/C (compound 0.949 µM) | viability, T/C (compound 3 µM) | viability, T/C (compound 0.000949 µM) | viability, T/C (compound 0.003 µM)
1 | CC(C)CC(NC(=O)C(Cc1ccccc1)NC(=O)c1cnccn1)B(O)O (centres undefined) | 0.000922 µM and 0.000463 µM | 116% and 74.5% | 0.75% and 0.32% | 0.21% and 0.23% | 0.25% and 0.21% | 0.37% and 0.28% | – | – | – | – | – | – | – | – | – | – | – | – | –
2 | CC(C)CC(NC(=O)CNC(=O)c1cc(Cl)ccc1Cl)B1OC(=O)CC(CC(=O)O)(C(=O)O)O1 (centres undefined) | 0.00741 µM and 0.0083 µM | 105% and 94.4% | 110% and 91.3% | 30.4% and 42.1% | 4.94% and 1.75% | 0.38% and 0.44% | 102% and 99.3% | – | – | – | – | – | – | – | – | – | – | – | –
3 | CC(C)c1c(-c2ccccc2)nc2c(C#N)c[nH]n2c1=O | > 10 µM and 3.7 µM | – | – | – | 106% and 89.1% | 92.4% and 85.5% | – | 92.8% and 89.8% | 97.1% and 71.4% | 84.7% and 52.7% | 85.2% and 40.5% | – | – | – | – | – | – | – | –
4 | CC1COCCN1c1cc(-c2ccnn2C)c2ccnc(-c3ccn[nH]3)c2n1 (centres undefined) | – | – | 76.4% and 67.9% | 86.4% and 64.7% | 69.7% and 48.6% | 61% and 34.3% | – | 61% and 28.5% | 39.8% and 25.1% | – | – | – | – | – | – | – | – | – | –
5 | CC[C@@]1(O)C(=O)OCc2c1cc1n(c2=O)Cc2cc3c(CN(C)C)c(O)ccc3nc2-1 | > 0.1 µM | 91% and 92.2% | 77.7% and 62.7% | 83.7% and 57.4% | 95% and 57.3% | 85.6% and 47.7% | 103% and 101% | – | – | – | – | – | – | – | – | – | – | – | –
6 | CCc1c2c(nc3ccc(O)cc13)-c1cc3c(c(=O)n1C2)COC(=O)[C@]3(O)CC | 0.00876 µM and < 0.000949 µM | – | – | – | – | – | – | – | – | – | – | 48.7% and 26.2% | 11.6% and 0.27% | 0.5% and 0.83% | 0.52% and 0.33% | – | – | 71.5% and 50.2% | 68.2% and 39%
7 | COc1cc(C2c3cc4c(cc3C(OC3OC5COC(C)OC5C(O)C3O)C3COC(=O)C23)OCO4)cc(OC)c1O (centres undefined) | > 3 µM and 0.359 µM | – | – | – | – | – | – | – | – | – | – | 81.8% and 78.6% | 73.6% and 82.9% | 78% and 57.8% | 77.3% and 50.9% | 73.4% and 48.3% | 74.7% and 34.3% | – | –

Further lines, with some results ahead:

Row | IC50 | Structure (SMILES) | viability, T/C (compound 0.000316 µM) | viability, T/C (compound 0.00316 µM) | viability, T/C (compound 0.01 µM) | viability, T/C (compound 0.0316 µM) | viability, T/C (compound 0.1 µM) | viability, T/C (compound 0.001 µM) | viability, T/C (compound 0.316 µM) | viability, T/C (compound 1 µM) | viability, T/C (compound 3.16 µM) | viability, T/C (compound 10 µM) | viability, T/C (compound 0.00949 µM) | viability, T/C (compound 0.03 µM) | viability, T/C (compound 0.0949 µM) | viability, T/C (compound 0.3 µM) | viability, T/C (compound 0.949 µM) | viability, T/C (compound 3 µM) | viability, T/C (compound 0.000949 µM) | viability, T/C (compound 0.003 µM)
8 | > 10 µM and 3.56 µM | CC1(C)CCC(CN2CCN(c3ccc(C(=O)NS(=O)(=O)c4ccc(NCC5CCOCC5)c([N+](=O)[O-])c4)c(Oc4cnc5[nH]ccc5c4)c3)CC2)=C(c2ccc(Cl)cc2)C1 | – | – | – | 95.7% and 61.2% | 95.8% and 70.4% | – | 89.5% and 69.6% | 101% and 73.5% | 101% and 55.5% | – | – | – | – | – | – | – | – | –
9 | 8.04 µM and 2.07 µM | CC1COCCN1c1cc(C2(S(C)(=N)=O)CC2)nc(-c2ccnc3[nH]ccc23)n1 (centres undefined) | – | – | – | 91.2% and 97.8% | 85.4% and 99.9% | – | 88.4% and 81.3% | 83.1% and 59.1% | 68.1% and 46.4% | 45.8% and 38.9% | – | – | – | – | – | – | – | –
10 | > 3 µM | CCN(c1cc(-c2ccc(CN3CCOCC3)cc2)cc(C(=O)NCc2c(C)cc(C)[nH]c2=O)c1C)C1CCOCC1 | – | – | – | – | – | – | – | – | – | – | 86.8% and 93.2% | 103% and 81.7% | 82.1% and 70.6% | 95.9% and 76.5% | 95.5% and 69.7% | 99.3% and 57.8% | – | –
11 | > 1 µM | COc1cc(Nc2ncc3c(n2)-c2ccc(Cl)cc2C(c2c(F)cccc2OC)=NC3)ccc1C(=O)O | – | 102% and 63.7% | 82.4% and 67.3% | 76.8% and 63.6% | 84.4% and 66.4% | – | 79.4% and 61.6% | 80.4% and 43.7% | – | – | – | – | – | – | – | – | – | –
